The source of these data is US20250034216A1, “STEREOSELECTIVE COVALENT LIGANDS FOR ONCOGENIC AND IMMUNOLOGICAL PROTEINS” (The Scripps Research Institute, priority 2021, published 2025).

In one test the test system is DDX42. Description: SEC-MS elution profile. It counts as cell-based, human. Conditions: 22Rv1 cells, 20 μM, 3 h. The method, then: . Cell pellets were lysed by sonication (8 pulses, 40% power) in 600 μL ice-cold PBS supplemented with cOmplete protease inhibitors (1 tablet/10 mL of PBS), ultracentrifuged for 20 min at 100,000 g, then normalized to a standardized concentration (typically 1.5 to 2.5 mg/mL). Clarified lysate was injected into a Superdex 200 Increase 10/300 GL column attached to an AKTA pure FPLC system. Proteins were fractionated using an isocratic gradient (PBS) running at 0.5 mL/min into 5 fractions 2 mL wide, beginning at 8 mL and ending at 18 mL. Eluate was collected into 15 mL tubes containing 12 mL of acetone at 4C. After completion of one set of 5 fractions, the above protocol was repeated a second time for the remaining 5 fractions. Proteins were precipitated overnight at −20 C, then spun at 4500 g for 20 minutes, yielding a white protein pellet. […]
(§1) Data processing: Fractional distributions for each peptide-spectra match with a total TMT reporter ion intensity were calculated by dividing the reporter ion intensity for each TMT channel by the summed intensity across the 5 TMT channels corresponding to a single treatment condition (Equation 1). […] Euclidean distances (SE shift scores, Equation 2) were calculated using the average elution profile for each protein across replicates, combined by treatment condition and cell line. […]

In a further test the test system is p27. The experiment in a line: anti-p27 western blot. The format is cell-based, human. Conditions: 22Rv1 cells, 24 h. Background: A western blot detects proteins with antibodies after separation by electrophoresis.
For test [1], the target named is T1, recombinant FLAG-PSME1 (PSME1_C22) (Homo sapiens, UniProt Q06323).
T1 construct: FLAG (C); expressed in transfected cells; host or cells: HEK293T (lysate treated in vitro)
T1 sequence (Q06323 whole entry): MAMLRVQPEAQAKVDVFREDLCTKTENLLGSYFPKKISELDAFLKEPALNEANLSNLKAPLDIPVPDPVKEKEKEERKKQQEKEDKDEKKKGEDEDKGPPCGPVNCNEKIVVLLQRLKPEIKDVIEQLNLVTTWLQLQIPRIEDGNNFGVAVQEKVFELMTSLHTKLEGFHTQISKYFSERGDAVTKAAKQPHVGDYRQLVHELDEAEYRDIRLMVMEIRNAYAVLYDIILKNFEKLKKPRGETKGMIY
Description: Gel-based ABPP for PSME1 cysteine engagement. It counts as binding. Particulars: HEK293T lysates expressing FLAG-PSME1, in vitro, then 2.5 μM MY-11B 30 min; read-out: IC50 for engaging PSME1_C22 (competition against MY-11B labeling). The method, then: C-terminally FLAG-tagged PSME1 WT or C22A were transiently expressed in HEK293T cells, harvested 48 hours later, then cells were divided into aliquots, flash frozen and stored at −80 C. On the day of the experiment, an aliquot of cells were thawed, lysed by sonication in ice-cold PBS supplemented with cOmplete protease inhibitors (1 tablet/10 mL of PBS). normalized to 2.0 mg/mL, and divided into 25 μL aliquots. 1 μL of DMSO or compound (25× stock) was incubated with lysates for 1.5 hours at RT, followed by incubation with 1 μL of 62.5 μM MY-11B click probe (final concentration […]) for an additional 30 minutes. Reagents for the CuAAC click reaction were pre-mixed prior to addition to the samples. After 1 hour of click labeling, 4×SDS running buffer was added to samples, which were then analyzed by SDS-PAGE. ImageJ was used to quantify rhodamine band intensities, and GraphPad PRISM Version 9.0.0 was used to generate IC50 curves (four-parameter variable slope least squares regression).

For test [2], the system named is 20S core proteasomal complex. The experiment in a line: SEC-MS elution profile. It counts as cell-based, human. Conditions: 22Rv1 cells, 20 μM, 3 h. The method, then:
Sample preparation: Cells (adherent: 15 cm dishes, suspension: 2 million cells/mL) were treated with electrophilic probes in situ for indicated times and concentrations (elaborated fragments: 20 μM, 3 h), washed with ice-cold PBS, and flash frozen in liquid nitrogen. Cell pellets were lysed by sonication (8 pulses, 40% power) in 600 μL ice-cold PBS supplemented with cOmplete protease inhibitors (1 tablet/10 mL of PBS), ultracentrifuged for 20 min at 100,000 g, then normalized to a standardized concentration (typically 1.5 to 2.5 mg/mL). Clarified lysate was injected into a Superdex 200 Increase 10/300 GL column attached to an AKTA pure FPLC system. Proteins were fractionated using an isocratic gradient (PBS) running at 0.5 mL/min into 5 fractions 2 mL wide, beginning at 8 mL and ending at 18 mL. Eluate was collected into 15 mL tubes containing 12 mL of acetone at 4C. […]
as §1

In the case of `C=CC(=O)N1[C@H](c2ccc3c(c2)OCO3)c2[nH]c3ccccc3c2C[C@H]1C(=O)N1CCOCC1` [WX-02-23, 1-((1R,3S)-1-(benzo[d][1,3]dioxol-S-yl)-3-(morpholine-4-carbonyl)-1,3,4,9-tetrahydro-2H-pyrido [3,4-b]indol-2-yl)prop-2-en-1-one], the “SEC migration shift of DDX42” value in the test with DDX42 is listed as “stereoselectively caused this same size shift”. Also, the p27 expression result in the test on p27 is “induced expression of p27”.

By IC50 is commonly meant the concentration needed to halve the response being measured. `CC#CC(=O)N1C[C@H](c2ccc(Br)cc2)[C@@H]1C(=O)Nc1cccc2cccnc12` [MY-45B, (2R,3S)-3-(4-bromophenyl)-1-(but-2-ynoyl)-N-(quinolin-8-yl)azetidine-2-carboxamide]: in test [1], the IC50 was approximately 0.4 µM.

`C=CC(=O)N1C[C@H](c2ccc(Br)cc2)[C@@H]1C(=O)Nc1cccc2cccnc12` [MY-1B, (2R,3S)-1-acryloyl-3-(4-bromophenyl)-N-(quinolin-8-yl)azetidine-2-carboxamide]: the “SEC migration of 20S core proteasomal complex subunits” value in test [2] is on record as “unaffected”.
